Experiment [1] deals with Hedgehog pathway activation on 10T1/2/Smo#3 cells (C3H10T1/2 cells transfected with human Smoothened receptor). The experiment is described as follows: Hedgehog pathway activation on 10T1/2/Smo#3 cells measured by ALP activity. Format: cell-based. Put shortly:
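Inhibition of alkaline phosphatase induction, read fluorometrically from 4-methylumbelliferyl phosphate conversion, gave IC50 values; CellTiter-Blue tracked viability in parallel. Cells were the human Smo-transfected 10T1/2/Smo#3 pool, stimulated by 10-20% hShh conditioned medium or the Smo agonist SAG (500 nM).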

Experiment [2] has as its system Hedgehog pathway activation (GLi-luciferase reporter) in Shh Light II reporter cells. Description: Hedgehog pathway activation on Shh Light II reporter cells measured by luciferase activity. Format: cell-based. Put shortly: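 Shh Light II reporter cells carrying a hedgehog-responsive GLi-luciferase reporter were stimulated either with 500 nM SAG, a direct Smoothened agonist, or with conditioned media containing human Sonic Hedgehog (hShh). Test compounds were evaluated for blocking this pathway activation, quantified by luciferase activity. Cell viability was monitored in parallel with the Celltiter-Blue® assay.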

[3] abbreviates: Mus musculus, C3H 10T1/2, 10T1/2/Smo#3 cells, measured by ALP activity, read-out: ALP (IC50, inhibition of Hedgehog pathway activation).
Setting [4] is: Mus musculus, Shh Light II, hShh activation, read-out: Shh (IC50, inhibition of Hedgehog pathway activation).
The mark [5] stands for this setting: Mus musculus, C3H 10T1/2, 10T1/2/Smo#3 cells, hShh activation, ALP activity, read-out: 10T1/2/Smo#3 ALP activity (hShh Activation).
Where [6] appears, read: Mus musculus, Shh Light II, SAG activation (500 nM SAG), read-out: Shh Light II luciferase activity (SAG activation).
Where [7] appears, read: Mus musculus, Shh Light II, hShh activation, read-out: Shh Light II luciferase activity (hShh activation).
Setting [8] is: hShh activation, read-out: Shh (IC50, inhibition of Hedgehog pathway activation).

pIC50: −log10 of the molar value. Like-named read-outs stand apart in the source and are kept apart here.

Turning to `Cc1ccc(-c2cn3nc(-c4ccccc4OC(F)(F)F)ccc3n2)cc1NC(=O)C(C)(C)C` [Example 263, N-(2-methyl-5-(6-(2-(trifluoromethoxy)phenyl)imidazo[1,2-b]pyridazin-2-yl)phenyl)pivalamide], the pIC50 is 6.99 in experiment [1] (setting [3]) and 6.64 in experiment [2] (setting [4]).

On to `CCc1ccc(-c2cn3nc(-c4cccnc4C(F)(F)F)ccc3n2)cc1NC(=O)N(CC)CC` [Example 693, 1,1-diethyl-3-(2-ethyl-5-(6-(2-(trifluoromethyl)pyridin-3-yl)imidazo[1,2-b]pyridazin-2-yl)phenyl)urea], for which the pIC50 in experiment [1] (setting [3]) was 6.73; in experiment [2] (setting [4]), 6.72.

`CCN[C@@H]1CCN(c2ccc3nc(-c4ccc(C(F)(F)F)c(NC(=O)C(C)(C)C)c4)cn3n2)C1` [Example 635, (R)—N-(5-(6-(3-(ethylamino)pyrrolidin-1-yl)imidazo[1,2-b]pyridazin-2-yl)-2-(trifluoromethyl)phenyl)pivalamide]: the pIC50 in experiment [1] (setting [3]) is 6.80; in experiment [2] (setting [4]) it was 6.96.

Turning to `Fc1ccc(CN2CCN(c3ccc4nc(-c5ccc(F)cc5)c(Br)n4n3)CC2)cc1` [Example 146, 3-bromo-6-(4-(4-fluorobenzyl)piperazin-1-yl)-2-(4-fluorophenyl)imidazo[1,2-b]pyridazine], the pIC50 in experiment [1] (setting [3]) is 5.16; in experiment [2] (setting [4]), under 5.00.

Take `Cc1ccc(-c2cn3nc(-c4ccc(C=CC(=O)NOC5CCCCO5)cc4)ccc3n2)cc1NC(=O)C(C)(C)C` (stereo not shown) [compound 558]: the pIC50 was 5.98 in experiment [1] (setting [3]) and 6.41 in experiment [2] (setting [4]).

As for `Cc1ccc(-c2cn3nc(-c4cccc(OCC(=O)NO)c4C(F)(F)F)ccc3n2)cc1NC(=O)C(C)(C)C` [Example 439, N-(5-(6-(3-(2-(hydroxyamino)-2-oxoethoxy)-2-(trifluoromethyl)phenyl)imidazo[1,2-b]pyridazin-2-yl)-2-methylphenyl)pivalamide], the pIC50 in experiment [1] (setting [3]) is 6.13; in experiment [2] (setting [4]) it was 6.44.

For the compound `Cc1ccc(-c2nc3ccc(-c4ccccc4F)nn3c2C)cc1NC(=O)C(C)(C)C` [Example 312, N-(5-(6-(2-fluorophenyl)-3-methylimidazo[1,2-b]pyridazin-2-yl)-2-methylphenyl)pivalamide], the pIC50 was 6.49 in experiment [1] (setting [3]) and 6.67 in experiment [2] (setting [4]).

For the compound `Cc1ccncc1-c1ccc2nc(-c3ccc(C(F)(F)F)c(NC(=O)C(C)(C)C)c3)cn2n1` [Example 383, N-(5-(6-(4-methylpyridin-3-yl)imidazo[1,2-b]pyridazin-2-yl)-2-(trifluoromethyl)phenyl)pivalamide], the pIC50 in experiment [1] (setting [3]) was 6.85; in experiment [2] (setting [4]), 6.71.

Consider `CC(C)(C)C(=O)Nc1cc(-c2cn3nc(-c4nccs4)ccc3n2)ccc1C(F)(F)F` [Example 148, N-(5-(6-(thiazol-2-yl)imidazo[1,2-b]pyridazin-2-yl)-2-(trifluoromethyl)phenyl)pivalamide], for which the pIC50 in experiment [1] (setting [5]) is 5.52 to 6.52; in experiment [1] (setting [3]), 5.71; in experiment [2] (setting [6]) it was 5.52 to 6.52; in experiment [2] (setting [4]) it was 6.22; in experiment [2] (setting [7]), 5.52 to 6.52.

With `CC(C)(C)C(=O)Nc1cc(-c2cn3nc(C4CCCC4)ccc3n2)ccc1C(F)(F)F` [Example 133, N-(5-(6-cyclopentylimidazo[1,2-b]pyridazin-2-yl)-2-(trifluoromethyl)phenyl)pivalamide], the pIC50 in experiment [1] (setting [3]) is 6.07; in experiment [2] (setting [4]) it was 6.31.

On to `CC(C)(C)C(=O)Nc1cc(-c2cn3nc(N4CCC(O)C4)ccc3n2)ccc1C(F)(F)F` (stereo not shown) [Example 337, N-(5-(6-(3-hydroxypyrrolidin-1-yl)imidazo[1,2-b]pyridazin-2-yl)-2-(trifluoromethyl)phenyl)pivalamide], for which the pIC50 in experiment [1] (setting [3]) was 6.71; in experiment [2] (setting [8]), 6.51.

Consider `Cc1ccc(-c2cn3nc(N4CC[C@@H](O)C4)ccc3n2)cc1NC(=O)C(C)(C)C` [Example 347, (R)-N-(5-(6-(3-hydroxypyrrolidin-1-yl)imidazo[1,2-b]pyridazin-2-yl)-2-methylphenyl)pivalamide], for which the pIC50 was 7.66 in experiment [1] (setting [3]) and 7.34 in experiment [2] (setting [4]).

Regarding `COc1ccc2nc(-c3ccc(Cl)c(NC(=O)C4CCCC4)c3)cn2n1` [Example 112, N-(2-chloro-5-(6-methoxyimidazo[1,2-b]pyridazin-2-yl)phenyl)cyclopentanecarboxamide], the figures for the pIC50 in experiment [1] (setting [3]) and in experiment [2] (setting [4]) were 5.02 and under 5.00, respectively.

On to `CC(=O)NC1CCN(c2ccc3nc(-c4ccc(C(F)(F)F)c(NC(=O)C(C)(C)C)c4)cn3n2)C1` (stereo not shown) [Example 351, N-(5-(6-(3-acetamidopyrrolidin-1-yl)imidazo[1,2-b]pyridazin-2-yl)-2-(trifluoromethyl)phenyl)pivalamide], for which the pIC50 is 7.68 in experiment [1] (setting [3]) and 7.42 in experiment [2] (setting [4]).

`Cc1c(-c2ccccc2F)nn2cc(-c3ccc(C(F)(F)F)c(NC(=O)C(C)(C)C)c3)nc2c1C` [Example 200, N-(5-(6-(2-fluorophenyl)-7,8-dimethylimidazo[1,2-b]pyridazin-2-yl)-2-(trifluoromethyl)phenyl)pivalamide]: the pIC50 in experiment [1] (setting [3]) and in experiment [2] (setting [4]) was 6.55 throughout.

In the case of `CCCCS(=O)(=O)c1ccc2nc(-c3ccc(C)c(NC(=O)C(C)(C)C)c3)cn2n1` [Example 130, N-(5-(6-(butylsulfonyl)imidazo[1,2-b]pyridazin-2-yl)-2-methylphenyl)pivalamide], the pIC50 was 5.52 to 6.52 in experiment [1] (setting [5]); 6.28 in experiment [1] (setting [3]); over 6.52 in experiment [2] (setting [6]); 6.05 in experiment [2] (setting [4]); 5.52 to 6.52 in experiment [2] (setting [7]).

As for `Cc1ccccc1CN1CCN(c2ccc3nc(-c4ccccc4)c(C)n3n2)CC1` [Example 163, 3-methyl-6-(4-(2-methylbenzyl)piperazin-1-yl)-2-phenylimidazo[1,2-b]pyridazine], the pIC50 in experiment [1] (setting [3]) and in experiment [2] (setting [4]) was 5.98 in each case.

Regarding `Cc1cc(Cl)c(-c2cn3nc(-c4cccnc4C(F)(F)F)ccc3n2)cc1NC(=O)C(C)(C)C` [Example 639, N-(4-chloro-2-methyl-5-(6-(2-(trifluoromethyl)pyridin-3-yl)imidazo[1,2-b]pyridazin-2-yl)phenyl)pivalamide], the pIC50 was over 6.52 in experiment [1] (setting [5]); 7.26 in experiment [1] (setting [3]); over 6.52 in experiment [2] (setting [6]); 7.52 in experiment [2] (setting [4]); over 6.52 in experiment [2] (setting [7]).

Consider `CNC1CCN(c2ccc3nc(-c4ccc(C(F)(F)F)c(NC(=O)C(C)(C)C)c4)cn3n2)C1` (stereo not shown) [Example 349, N-(5-(6-(3-(methylamino)pyrrolidin-1-yl)imidazo[1,2-b]pyridazin-2-yl)-2-(trifluoromethyl)phenyl)pivalamide], for which the pIC50 in experiment [1] (setting [3]) is 8.05; in experiment [2] (setting [4]), 7.35.

`CC(C)(C)C(=O)Nc1cc(-c2cn3nc(N4CC[C@H](O)C4)ccc3n2)ccc1C(F)(F)F` [Example 340, (S)-N-(5-(6-(3-hydroxypyrrolidin-1-yl)imidazo[1,2-b]pyridazin-2-yl)-2-(trifluoromethyl)phenyl)pivalamide]: the pIC50 in experiment [1] (setting [3]) and in experiment [2] (setting [4]) was 6.94 in each case.

On to `CCOC(=O)CCCCOc1ccc(-c2ccc3nc(-c4ccc(C)c(NC(=O)C(C)(C)C)c4)cn3n2)c(C(F)(F)F)c1` [Example 427, ethyl 5-(4-(2-(4-methyl-3-pivalamidophenyl)imidazo[1,2-b]pyridazin-6-yl)-3-(trifluoromethyl)phenoxy)pentanoate], for which the pIC50 was 6.75 in experiment [1] (setting [3]) and 7.57 in experiment [2] (setting [4]).

For `COc1cc(CN(Cc2cc(OC)cc(OC)c2)c2cc(-c3cn4nc(OC)ccc4n3)ccc2C)cc(OC)c1` [Example 104, N,N-bis(3,5-dimethoxybenzyl)-5-(6-methoxyimidazo[1,2-b]pyridazin-2-yl)-2-methylaniline], the pIC50 was 4.52 to 5.52 in experiment [1] (setting [5]); under 5.00 in experiment [1] (setting [3]); 4.52 to 5.52 in experiment [2] (setting [6]); under 5.00 in experiment [2] (setting [4]); 4.52 to 5.52 in experiment [2] (setting [7]).

`Cc1ccc(-c2cn3nc(-c4ccccc4F)ccc3n2)cc1NC(=O)C(C)(C)C` [Example 220, N-(5-(6-(2-fluorophenyl)imidazo[1,2-b]pyridazin-2-yl)-2-methylphenyl)pivalamide]: the figures for the pIC50 in experiment [1] (setting [3]) and in experiment [2] (setting [4]) were 7.55 and 7.28, respectively.

In the case of `CNC1CCN(c2ccc3nc(-c4ccc(C)c(NC(=O)C(C)(C)C)c4)cn3n2)C1` (stereo not shown) [Example 473, N-(2-methyl-5-(6-(3-(methylamino)pyrrolidin-1-yl)imidazo[1,2-b]pyridazin-2-yl)phenyl)pivalamide], the pIC50 in experiment [1] (10T1/2/Smo#3 cells, measured by ALP activity, read-out: ALP (IC50, inhibition of Hedgehog pathway activation)) was 7.03; in experiment [2] (setting [8]), 7.11.

As to `Cc1ccc(-c2cn3nc(SCc4ccccc4)ccc3n2)cc1NC(=O)C(C)(C)C` [Example 129, N-(5-(6-(benzylthio)imidazo[1,2-b]pyridazin-2-yl)-2-methylphenyl)pivalamide], the figures for the pIC50 in experiment [1] (setting [3]) and in experiment [2] (setting [4]) were 6.10 and 5.75, respectively.

For `CC(C)(C)C(=O)Nc1cc(-c2cn3cc(Cl)ncc3n2)ccc1C(F)(F)F` [Example 85, N-(5-(6-chloroimidazo[1,2-a]pyrazin-2-yl)-2-(trifluoromethyl)phenyl)pivalamide], the pIC50 in experiment [1] (setting [3]) was 5.88; in experiment [2] (setting [4]), 5.36.

The record behind these values is patent US8871767B2, “2-arylimidazo[1,2-B]pyridazine, 2-phenylimidazo[1,2-A]pyridine, and 2-phenylimidazo[1,2-A]pyrazine derivatives” (Hengrui (USA) Ltd., priority 2010, dated 2014).
